Activity calls are given as the source filed them.
Key:
Type in all cases: functional
cells = assay: cells
[1] = THP-1 cell cytotoxicity, dose response, cytotoxicity control for non-replicating M. tuberculosis project (AID 489025)
[2] = molecular target: Serine/threonine-protein kinase TBK1 (Homo sapiens, UniProt Q9UHD2); assay: Navigating the Kinome. Panel member name: TBK1
[3] = molecular target: T1, cAMP-dependent protein kinase catalytic subunit PRKX (Homo sapiens, UniProt P51817)
T1 sequence (P51817 whole entry): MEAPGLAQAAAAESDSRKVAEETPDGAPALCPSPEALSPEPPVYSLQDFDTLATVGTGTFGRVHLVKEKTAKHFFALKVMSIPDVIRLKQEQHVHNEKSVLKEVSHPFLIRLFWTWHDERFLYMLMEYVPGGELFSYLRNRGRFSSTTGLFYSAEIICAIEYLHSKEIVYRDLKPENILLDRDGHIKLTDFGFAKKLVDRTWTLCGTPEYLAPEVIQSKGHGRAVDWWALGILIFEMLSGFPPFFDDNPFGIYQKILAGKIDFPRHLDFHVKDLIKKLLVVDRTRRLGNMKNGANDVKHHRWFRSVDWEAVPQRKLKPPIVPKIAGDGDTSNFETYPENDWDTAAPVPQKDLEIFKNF

[4] = molecular target: Dual specificity tyrosine-phosphorylation-regulated kinase 1B (Homo sapiens, UniProt Q9Y463); assay: Navigating the Kinome. Panel member name: DYRK1B
Sequence of Dual specificity tyrosine-phosphorylation-regulated kinase 1B (Q9Y463 whole entry): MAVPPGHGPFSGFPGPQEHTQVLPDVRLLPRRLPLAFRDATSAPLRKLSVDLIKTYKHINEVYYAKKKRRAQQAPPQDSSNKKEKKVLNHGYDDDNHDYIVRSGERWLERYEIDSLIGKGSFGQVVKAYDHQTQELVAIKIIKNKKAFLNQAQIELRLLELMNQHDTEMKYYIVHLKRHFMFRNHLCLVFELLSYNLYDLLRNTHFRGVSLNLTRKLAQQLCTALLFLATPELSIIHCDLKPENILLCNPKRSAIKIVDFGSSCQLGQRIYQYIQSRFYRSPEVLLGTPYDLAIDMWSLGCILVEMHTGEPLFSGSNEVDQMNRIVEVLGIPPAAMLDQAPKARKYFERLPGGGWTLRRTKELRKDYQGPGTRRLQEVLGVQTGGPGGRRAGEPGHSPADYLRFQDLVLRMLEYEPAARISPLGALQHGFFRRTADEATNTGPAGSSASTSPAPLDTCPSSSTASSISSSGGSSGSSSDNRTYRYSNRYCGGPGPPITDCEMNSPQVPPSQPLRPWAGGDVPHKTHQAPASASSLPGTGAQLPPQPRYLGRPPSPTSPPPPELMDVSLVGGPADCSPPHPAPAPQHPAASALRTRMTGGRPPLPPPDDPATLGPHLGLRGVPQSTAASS

[5] = molecular target: T2, Tyrosine-protein kinase JAK3 (Homo sapiens, UniProt P52333)
T2 sequence (P52333 whole entry): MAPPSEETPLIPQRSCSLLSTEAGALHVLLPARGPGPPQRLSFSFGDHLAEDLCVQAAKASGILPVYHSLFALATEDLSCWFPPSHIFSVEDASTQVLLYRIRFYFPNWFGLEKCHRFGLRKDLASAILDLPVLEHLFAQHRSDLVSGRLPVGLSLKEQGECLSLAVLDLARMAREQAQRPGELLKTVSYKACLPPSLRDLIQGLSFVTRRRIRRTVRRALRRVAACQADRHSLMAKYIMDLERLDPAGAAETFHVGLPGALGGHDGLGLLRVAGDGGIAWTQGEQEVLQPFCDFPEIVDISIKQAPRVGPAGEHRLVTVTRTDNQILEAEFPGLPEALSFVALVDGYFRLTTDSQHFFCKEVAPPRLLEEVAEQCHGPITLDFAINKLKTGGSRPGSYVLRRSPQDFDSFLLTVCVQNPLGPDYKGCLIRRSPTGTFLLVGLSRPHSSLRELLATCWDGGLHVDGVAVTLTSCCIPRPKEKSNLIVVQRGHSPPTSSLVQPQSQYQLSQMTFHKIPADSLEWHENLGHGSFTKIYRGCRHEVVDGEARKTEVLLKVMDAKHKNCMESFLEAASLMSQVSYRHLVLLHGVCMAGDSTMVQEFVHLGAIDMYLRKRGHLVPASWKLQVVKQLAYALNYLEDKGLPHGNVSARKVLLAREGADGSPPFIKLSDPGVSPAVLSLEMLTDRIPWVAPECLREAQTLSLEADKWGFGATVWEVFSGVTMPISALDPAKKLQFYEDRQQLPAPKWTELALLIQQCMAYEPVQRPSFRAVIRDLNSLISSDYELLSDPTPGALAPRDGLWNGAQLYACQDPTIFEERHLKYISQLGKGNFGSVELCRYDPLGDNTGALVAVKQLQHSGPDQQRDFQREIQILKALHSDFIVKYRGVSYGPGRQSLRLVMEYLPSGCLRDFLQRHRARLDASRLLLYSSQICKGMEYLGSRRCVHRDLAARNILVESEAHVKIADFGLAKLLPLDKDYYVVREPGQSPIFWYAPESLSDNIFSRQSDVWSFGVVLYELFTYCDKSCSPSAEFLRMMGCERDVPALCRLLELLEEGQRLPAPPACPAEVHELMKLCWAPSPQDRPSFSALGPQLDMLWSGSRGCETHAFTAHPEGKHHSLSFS

[6] = molecular target: Death-associated protein kinase 3 (Homo sapiens, UniProt O43293);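 note: measured as one member of a kinome-wide profiling panel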
Sequence of Death-associated protein kinase 3 (O43293 whole entry): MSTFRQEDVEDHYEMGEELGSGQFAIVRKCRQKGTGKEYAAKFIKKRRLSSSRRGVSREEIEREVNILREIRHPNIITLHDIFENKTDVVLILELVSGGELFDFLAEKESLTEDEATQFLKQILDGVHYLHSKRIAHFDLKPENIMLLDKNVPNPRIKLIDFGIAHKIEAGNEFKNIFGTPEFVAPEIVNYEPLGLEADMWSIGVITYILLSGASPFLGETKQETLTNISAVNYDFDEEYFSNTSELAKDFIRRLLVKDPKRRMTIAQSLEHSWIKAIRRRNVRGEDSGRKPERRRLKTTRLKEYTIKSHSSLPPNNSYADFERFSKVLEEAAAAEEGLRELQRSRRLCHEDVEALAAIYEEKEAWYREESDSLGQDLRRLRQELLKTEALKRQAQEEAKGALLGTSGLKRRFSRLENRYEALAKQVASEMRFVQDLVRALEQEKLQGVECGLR

[7] = molecular target: Glycogen synthase kinase-3 beta (Homo sapiens, UniProt P49841);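 note: value comes from a broad kinome profiling panel, with GSK3B as the panel member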
Sequence of Glycogen synthase kinase-3 beta (P49841 whole entry): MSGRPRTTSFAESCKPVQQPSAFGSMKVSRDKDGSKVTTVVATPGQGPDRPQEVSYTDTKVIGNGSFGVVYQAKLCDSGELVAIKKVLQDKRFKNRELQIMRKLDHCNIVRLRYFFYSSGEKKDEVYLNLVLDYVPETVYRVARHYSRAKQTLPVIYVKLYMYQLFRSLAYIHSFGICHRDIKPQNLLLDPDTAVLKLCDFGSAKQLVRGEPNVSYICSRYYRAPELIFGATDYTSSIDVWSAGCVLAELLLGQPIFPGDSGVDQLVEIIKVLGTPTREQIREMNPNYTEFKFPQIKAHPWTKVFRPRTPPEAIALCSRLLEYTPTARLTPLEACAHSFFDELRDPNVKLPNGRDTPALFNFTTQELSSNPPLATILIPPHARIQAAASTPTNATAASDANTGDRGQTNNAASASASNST

[8] = molecular target: T3, Serine/threonine-protein kinase D3 (Homo sapiens, UniProt O94806);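 note: determined within a kinase panel screen, with PRKCN as the panel member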
T3 sequence (O94806 whole entry): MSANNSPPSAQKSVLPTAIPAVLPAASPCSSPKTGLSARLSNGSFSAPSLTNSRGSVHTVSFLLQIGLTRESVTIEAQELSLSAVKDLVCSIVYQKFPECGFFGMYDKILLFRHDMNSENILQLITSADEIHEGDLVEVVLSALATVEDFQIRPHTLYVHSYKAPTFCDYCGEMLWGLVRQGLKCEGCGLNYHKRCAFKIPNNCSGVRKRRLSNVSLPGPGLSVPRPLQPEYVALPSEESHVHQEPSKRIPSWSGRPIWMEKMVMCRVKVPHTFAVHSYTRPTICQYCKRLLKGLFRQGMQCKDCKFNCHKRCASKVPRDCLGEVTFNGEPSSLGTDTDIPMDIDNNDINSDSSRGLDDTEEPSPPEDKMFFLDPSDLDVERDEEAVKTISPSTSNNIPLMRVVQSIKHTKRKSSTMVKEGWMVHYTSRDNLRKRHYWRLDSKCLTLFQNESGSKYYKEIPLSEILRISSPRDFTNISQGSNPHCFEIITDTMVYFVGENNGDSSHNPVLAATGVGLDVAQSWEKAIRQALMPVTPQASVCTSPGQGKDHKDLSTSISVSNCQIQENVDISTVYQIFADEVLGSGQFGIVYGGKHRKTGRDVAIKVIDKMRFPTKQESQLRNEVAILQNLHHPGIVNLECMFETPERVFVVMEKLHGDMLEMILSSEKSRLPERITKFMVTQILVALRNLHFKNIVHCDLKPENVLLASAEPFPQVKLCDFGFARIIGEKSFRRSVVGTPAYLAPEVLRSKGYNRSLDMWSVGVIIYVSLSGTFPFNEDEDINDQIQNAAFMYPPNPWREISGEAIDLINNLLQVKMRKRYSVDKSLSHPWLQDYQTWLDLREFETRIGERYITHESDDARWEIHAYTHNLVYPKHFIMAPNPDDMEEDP

[9] = molecular target: Tyrosine-protein kinase Fyn (Homo sapiens, UniProt P06241)
Sequence of Tyrosine-protein kinase Fyn (P06241 whole entry): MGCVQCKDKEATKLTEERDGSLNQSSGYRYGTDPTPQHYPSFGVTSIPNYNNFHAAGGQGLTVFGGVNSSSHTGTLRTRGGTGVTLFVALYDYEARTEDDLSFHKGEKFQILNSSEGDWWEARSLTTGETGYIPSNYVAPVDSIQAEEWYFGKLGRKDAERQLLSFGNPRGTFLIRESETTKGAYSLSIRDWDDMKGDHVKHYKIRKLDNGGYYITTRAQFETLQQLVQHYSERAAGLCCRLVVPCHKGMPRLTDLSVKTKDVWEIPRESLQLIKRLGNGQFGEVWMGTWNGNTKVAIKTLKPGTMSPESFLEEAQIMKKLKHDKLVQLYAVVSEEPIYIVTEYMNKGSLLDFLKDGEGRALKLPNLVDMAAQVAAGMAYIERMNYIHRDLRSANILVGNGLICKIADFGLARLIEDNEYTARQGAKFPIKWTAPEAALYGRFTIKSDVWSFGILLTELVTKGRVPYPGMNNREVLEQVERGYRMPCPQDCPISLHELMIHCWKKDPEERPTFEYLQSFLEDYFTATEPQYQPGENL

[10] = molecular target: Vascular endothelial growth factor receptor 2 (Homo sapiens, UniProt P35968)
Sequence of Vascular endothelial growth factor receptor 2 (P35968 whole entry): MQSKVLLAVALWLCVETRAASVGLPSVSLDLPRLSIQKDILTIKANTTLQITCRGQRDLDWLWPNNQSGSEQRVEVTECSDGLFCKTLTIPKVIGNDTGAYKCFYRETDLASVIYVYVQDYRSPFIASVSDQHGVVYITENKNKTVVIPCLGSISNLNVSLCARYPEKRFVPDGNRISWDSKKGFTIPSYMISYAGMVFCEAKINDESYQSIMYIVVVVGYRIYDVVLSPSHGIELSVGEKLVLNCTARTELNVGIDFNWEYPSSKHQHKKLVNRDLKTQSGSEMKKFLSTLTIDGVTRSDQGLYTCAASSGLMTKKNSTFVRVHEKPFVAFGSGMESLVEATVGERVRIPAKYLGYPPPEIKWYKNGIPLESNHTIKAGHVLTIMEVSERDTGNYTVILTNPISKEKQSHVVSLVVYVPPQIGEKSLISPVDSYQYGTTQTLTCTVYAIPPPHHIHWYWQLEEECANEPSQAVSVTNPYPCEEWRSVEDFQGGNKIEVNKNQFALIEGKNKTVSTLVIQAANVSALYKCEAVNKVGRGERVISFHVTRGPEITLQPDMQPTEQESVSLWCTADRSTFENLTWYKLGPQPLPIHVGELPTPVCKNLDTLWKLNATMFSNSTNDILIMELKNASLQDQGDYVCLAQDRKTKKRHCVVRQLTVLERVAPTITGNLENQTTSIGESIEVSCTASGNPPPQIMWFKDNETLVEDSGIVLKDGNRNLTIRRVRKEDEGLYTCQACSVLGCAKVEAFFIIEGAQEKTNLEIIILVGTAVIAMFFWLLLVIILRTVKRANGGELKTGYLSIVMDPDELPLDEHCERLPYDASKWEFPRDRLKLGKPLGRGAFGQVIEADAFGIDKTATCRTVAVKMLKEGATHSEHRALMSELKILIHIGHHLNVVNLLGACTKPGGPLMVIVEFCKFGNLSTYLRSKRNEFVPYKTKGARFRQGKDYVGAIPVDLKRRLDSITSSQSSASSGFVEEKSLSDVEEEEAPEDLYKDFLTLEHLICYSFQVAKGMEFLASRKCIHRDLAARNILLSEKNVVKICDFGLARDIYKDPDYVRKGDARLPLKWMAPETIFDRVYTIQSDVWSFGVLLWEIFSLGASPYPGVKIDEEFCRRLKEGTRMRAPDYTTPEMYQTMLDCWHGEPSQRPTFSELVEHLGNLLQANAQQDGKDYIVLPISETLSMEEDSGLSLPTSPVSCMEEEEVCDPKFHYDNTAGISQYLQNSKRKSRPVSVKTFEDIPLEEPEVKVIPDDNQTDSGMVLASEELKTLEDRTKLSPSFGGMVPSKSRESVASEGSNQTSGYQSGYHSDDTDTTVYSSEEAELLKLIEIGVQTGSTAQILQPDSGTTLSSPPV

Sequence of Serine/threonine-protein kinase TBK1 (Q9UHD2 whole entry): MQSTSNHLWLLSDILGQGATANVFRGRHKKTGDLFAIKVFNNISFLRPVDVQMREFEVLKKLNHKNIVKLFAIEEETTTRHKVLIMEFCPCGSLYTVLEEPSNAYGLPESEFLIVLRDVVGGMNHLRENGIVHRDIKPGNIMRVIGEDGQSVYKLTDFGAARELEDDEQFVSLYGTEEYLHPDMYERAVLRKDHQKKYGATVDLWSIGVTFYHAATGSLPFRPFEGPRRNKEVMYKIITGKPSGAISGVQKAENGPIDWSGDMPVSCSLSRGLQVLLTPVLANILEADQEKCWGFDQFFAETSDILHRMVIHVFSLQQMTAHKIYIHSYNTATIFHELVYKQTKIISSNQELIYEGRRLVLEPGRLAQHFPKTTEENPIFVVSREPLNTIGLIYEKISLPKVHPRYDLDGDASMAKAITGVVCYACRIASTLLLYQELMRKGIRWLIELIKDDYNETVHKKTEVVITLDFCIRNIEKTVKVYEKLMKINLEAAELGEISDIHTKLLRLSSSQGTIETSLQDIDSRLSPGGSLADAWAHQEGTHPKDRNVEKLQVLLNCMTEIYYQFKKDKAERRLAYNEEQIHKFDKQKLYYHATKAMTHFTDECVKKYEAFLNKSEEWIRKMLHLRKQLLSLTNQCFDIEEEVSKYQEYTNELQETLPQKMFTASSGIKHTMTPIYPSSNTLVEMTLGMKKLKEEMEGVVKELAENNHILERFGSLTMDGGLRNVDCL

Structure (SMILES) | IC50 (cells) | CC50 [1] | Ki [2] | Ki [3] | pKi [3] | Ki [4] | pKi [4] | Ki [5] | pKi [5] | Ki [6] | pKi [6] | Ki [7] | pKi [7] | Ki [8] | pKi [8] | Ki [9] | Ki [10] | pKi [10]
CCOC(=O)c1ccc(NC2=CC(=O)C(=O)c3ccccc32)cc1 | 19.2 µM (active) | 15.2 µM (active) | – | – | – | – | – | – | – | – | – | – | – | – | – | – | – | –
NC1CCC(Nc2nc(Cl)cc(-c3c[nH]c4ncccc34)n2)CC1 (centres undefined) | – | – | 2 µM (active) | 0.00316 µM (active) | 8.5 | 0.0158 µM (active) | 7.8 | 0.158 µM (active) | 6.8 | 0.0501 µM (active) | 7.3 | 0.398 µM (active) | 6.4 | 0.00501 µM (active) | 8.3 | > 6.31 µM (inactive) | 0.794 µM (active) | 6.1
O=C(O)C1CN(Cc2ccc(OCc3ccccc3)cc2Cl)C1 | – | – | > 3.16 µM (inactive) | 1.26 µM (active) | – | > 2.51 µM (inactive) | – | > 5.01 µM (inactive) | – | > 5.01 µM (inactive) | – | > 3.98 µM (inactive) | – | > 3.98 µM (inactive) | – | > 6.31 µM (inactive) | > 2.51 µM (inactive) | –
Cc1ccccc1-c1cc2c(nn1)-c1ccccc1C2=O | 14.7 µM (active) | 36.2 µM (active) | – | – | – | – | – | – | – | – | – | – | – | – | – | – | – | –

Source: ChEMBL document CHEMBL1201862, “PubChem BioAssay data set” (2004)
